Values quoted from earlier work, collected in US6881247B2, “Protective barrier coating composition” (priority 2003, dated 2005).

Settings: calcium hydroxide

[Ca+2].[OH-].[OH-] [calcium hydroxide, Calcium hydroxide]
pH: 12.4
